Laboratory results reported in patent US12194039B2, “Methods of treating heart failure by administering omecamtiv mecarbil” (Cytokinetics, Inc., priority 2020, dated 2025).
Where two headings read alike, the source gives them in different places.

Legend:
[1] = system: patients with heart failure with reduced ejection fraction
Excerpt: The primary outcome was a composite of the time to a heart failure event or cardiovascular death, whichever occurred first. A heart failure event was defined as an urgent clinic visit, emergency department visit or hospitalization for subjectively and objectively worsening heart failure leading to treatment intensification beyond changed oral diuretic therapy. Secondary outcomes were: the time to cardiovascular death; change in KCCQ Total Symptom Score (TSS) from baseline to Week 24 (scale from 0 to 100; higher score indicates fewer symptoms); time to first heart failure hospitalization; and time to all-cause death. All deaths, HF events, major cardiac ischemic events (myocardial infarction/unstable angina hospitalization, and coronary revascularization), and strokes were adjudicated by a blinded external Clinical Events Committee (Duke Clinical Research Institute) using standardized definitions.

MATE 2-K = MATE 2-K (Homo sapiens, UniProt Q86VL8); assay: In vitro inhibition by OM; type: in vitro ADME; settings: result in words
MATE1 = target: T1, MATE1 (Homo sapiens, UniProt Q96FL8); assay: In vitro inhibition by OM; type: in vitro ADME; settings: result in words
T1 sequence (Q96FL8 1-570): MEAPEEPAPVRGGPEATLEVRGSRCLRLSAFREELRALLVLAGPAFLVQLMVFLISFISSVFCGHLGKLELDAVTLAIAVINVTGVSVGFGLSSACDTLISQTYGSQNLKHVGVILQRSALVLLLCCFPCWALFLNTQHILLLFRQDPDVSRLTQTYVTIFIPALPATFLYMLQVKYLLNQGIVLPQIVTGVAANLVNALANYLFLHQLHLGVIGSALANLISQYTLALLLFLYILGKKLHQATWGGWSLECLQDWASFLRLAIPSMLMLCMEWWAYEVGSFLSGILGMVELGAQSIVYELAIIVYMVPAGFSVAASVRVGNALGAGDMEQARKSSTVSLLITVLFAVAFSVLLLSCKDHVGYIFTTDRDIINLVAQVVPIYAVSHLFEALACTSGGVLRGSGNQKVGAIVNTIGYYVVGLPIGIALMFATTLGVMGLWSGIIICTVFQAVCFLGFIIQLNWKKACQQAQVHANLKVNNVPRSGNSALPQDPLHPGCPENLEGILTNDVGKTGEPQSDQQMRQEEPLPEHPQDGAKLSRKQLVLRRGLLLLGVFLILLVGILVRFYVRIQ

[2] = Single 35 mg dose of radiolabeled OM: blood to plasma ratio and excretion; type: in vivo, human; settings: oral radiolabeled OM, healthy subjects
Excerpt: The volume of distribution at steady state was approximately 4.8-6.6 L/kg.
Clearance of OM after oral administration was primarily through metabolism in the liver. […] Following oral administration of radiolabeled OM to healthy subjects, approximately 49% of the dose was excreted in urine (primarily as metabolites with 8% of parent compound recovered) and 38% in feces (primarily as unchanged drug).

P-gp = P-gp (Homo sapiens, UniProt P08183); assay: In vitro inhibition by OM; type: in vitro ADME; settings: result in words
[3] = system: patients with HFrEF by baseline SBP; type: in vivo
Excerpt: Systolic blood pressure (SBP) is a major predictor of outcomes in patients with heart failure and reduced ejection fraction (HFrEF). […] This trial provided data on the efficacy and tolerability of omecamtiv mecarbil according to baseline SBP values. In contrast to other HFrEF therapies, which may not be tolerated in patients with low baseline blood pressure (e.g., <100 mmHg), the present study was able to enroll patients with SBP at baseline of 85 mmHg or greater.
The 8232 randomized patients were subdivided according to SBP at baseline: <100 mmHg (n=1473), 101-110 mmHg (n=1734), 111-120 mmHg (n=1824), 121-130 mmHg (n=1627), and >130 mmHg (n=1574). Significant differences between these subgroups were found with respect of multiple baseline characteristics. The primary composite endpoint occurred in 715 (48.5%), 682 (39.3%), 679 (37.2%), 556 (34.2%), and 498 (31.6%) patients in each SBP subgroup, respectively. Hazard ratios (HRs) and 95% confidence intervals (CIs) for the treatment effect on the primary outcome were of 0.81, 0.70-0.94; 0.88, 0.76-1.03; 1.03, 0.88-1.19; 0.87, 0.73-1.03; and 1.07, 0.90-1.28 in each SBP subgroup, respectively.

BCRP = target: T2, BCRP (Homo sapiens, UniProt Q9UNQ0); assay: Clinical studies and physiologically based pharmacokinetic modeling of OM as perpetrator; type: in vivo; parameters: from tissue; settings: clinical studies and PBPK modeling; result in words
T2 sequence (Q9UNQ0 1-655): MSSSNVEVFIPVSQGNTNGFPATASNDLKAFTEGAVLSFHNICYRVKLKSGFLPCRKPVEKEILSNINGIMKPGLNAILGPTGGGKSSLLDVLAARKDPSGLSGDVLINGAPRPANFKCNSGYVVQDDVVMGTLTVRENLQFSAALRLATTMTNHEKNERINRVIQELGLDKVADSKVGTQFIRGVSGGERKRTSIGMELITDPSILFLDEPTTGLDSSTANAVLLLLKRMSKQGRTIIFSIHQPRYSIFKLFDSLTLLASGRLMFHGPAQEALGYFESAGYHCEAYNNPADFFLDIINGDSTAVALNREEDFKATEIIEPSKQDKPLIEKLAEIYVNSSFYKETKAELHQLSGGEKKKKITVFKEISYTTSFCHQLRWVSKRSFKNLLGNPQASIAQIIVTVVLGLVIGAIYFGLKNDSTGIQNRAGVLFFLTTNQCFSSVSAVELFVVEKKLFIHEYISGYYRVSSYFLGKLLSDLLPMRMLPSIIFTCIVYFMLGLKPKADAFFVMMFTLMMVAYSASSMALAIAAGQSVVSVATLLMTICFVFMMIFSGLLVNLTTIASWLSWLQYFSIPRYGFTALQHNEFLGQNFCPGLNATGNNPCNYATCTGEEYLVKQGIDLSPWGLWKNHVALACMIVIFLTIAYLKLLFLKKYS
Excerpt: OM may be administered with drugs that are substrates of CYP3A4, CYP2C8, P-gp or BCRP.

plasma proteins = assay: Plasma protein binding; type: in vitro ADME

Sequence of P-gp (P08183 whole entry): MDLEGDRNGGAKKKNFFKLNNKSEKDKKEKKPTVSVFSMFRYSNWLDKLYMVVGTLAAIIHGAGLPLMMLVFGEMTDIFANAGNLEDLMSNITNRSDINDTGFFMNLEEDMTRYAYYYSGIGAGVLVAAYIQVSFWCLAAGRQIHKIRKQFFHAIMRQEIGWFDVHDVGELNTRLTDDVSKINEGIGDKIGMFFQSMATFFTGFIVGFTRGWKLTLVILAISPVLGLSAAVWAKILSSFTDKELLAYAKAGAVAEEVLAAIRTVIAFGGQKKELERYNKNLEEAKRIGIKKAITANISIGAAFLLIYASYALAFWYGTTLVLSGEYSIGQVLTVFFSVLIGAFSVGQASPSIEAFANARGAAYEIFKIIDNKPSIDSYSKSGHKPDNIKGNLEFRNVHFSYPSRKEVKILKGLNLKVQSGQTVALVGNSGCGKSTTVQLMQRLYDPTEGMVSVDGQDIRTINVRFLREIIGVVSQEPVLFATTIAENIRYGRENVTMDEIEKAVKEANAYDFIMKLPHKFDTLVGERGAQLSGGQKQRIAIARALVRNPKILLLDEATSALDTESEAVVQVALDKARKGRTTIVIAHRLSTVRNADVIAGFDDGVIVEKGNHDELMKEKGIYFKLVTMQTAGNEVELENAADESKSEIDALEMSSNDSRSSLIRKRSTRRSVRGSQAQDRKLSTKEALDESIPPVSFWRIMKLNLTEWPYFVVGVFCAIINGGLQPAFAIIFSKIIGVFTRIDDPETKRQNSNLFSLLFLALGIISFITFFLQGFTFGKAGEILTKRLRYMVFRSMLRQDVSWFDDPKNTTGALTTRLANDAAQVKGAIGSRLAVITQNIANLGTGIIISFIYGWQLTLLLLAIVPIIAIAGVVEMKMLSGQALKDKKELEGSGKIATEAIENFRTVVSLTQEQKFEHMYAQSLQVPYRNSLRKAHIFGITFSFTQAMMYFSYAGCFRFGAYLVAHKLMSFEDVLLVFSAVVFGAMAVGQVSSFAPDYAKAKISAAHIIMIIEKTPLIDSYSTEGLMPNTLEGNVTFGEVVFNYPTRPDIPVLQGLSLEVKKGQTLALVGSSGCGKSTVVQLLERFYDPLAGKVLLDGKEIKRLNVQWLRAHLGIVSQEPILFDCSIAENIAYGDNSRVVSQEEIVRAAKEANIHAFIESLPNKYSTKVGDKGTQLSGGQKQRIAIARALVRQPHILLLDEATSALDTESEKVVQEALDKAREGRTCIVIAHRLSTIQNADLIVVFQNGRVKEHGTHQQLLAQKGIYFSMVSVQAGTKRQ
Sequence of MATE 2-K (Q86VL8 1-566 isoform Q86VL8-3): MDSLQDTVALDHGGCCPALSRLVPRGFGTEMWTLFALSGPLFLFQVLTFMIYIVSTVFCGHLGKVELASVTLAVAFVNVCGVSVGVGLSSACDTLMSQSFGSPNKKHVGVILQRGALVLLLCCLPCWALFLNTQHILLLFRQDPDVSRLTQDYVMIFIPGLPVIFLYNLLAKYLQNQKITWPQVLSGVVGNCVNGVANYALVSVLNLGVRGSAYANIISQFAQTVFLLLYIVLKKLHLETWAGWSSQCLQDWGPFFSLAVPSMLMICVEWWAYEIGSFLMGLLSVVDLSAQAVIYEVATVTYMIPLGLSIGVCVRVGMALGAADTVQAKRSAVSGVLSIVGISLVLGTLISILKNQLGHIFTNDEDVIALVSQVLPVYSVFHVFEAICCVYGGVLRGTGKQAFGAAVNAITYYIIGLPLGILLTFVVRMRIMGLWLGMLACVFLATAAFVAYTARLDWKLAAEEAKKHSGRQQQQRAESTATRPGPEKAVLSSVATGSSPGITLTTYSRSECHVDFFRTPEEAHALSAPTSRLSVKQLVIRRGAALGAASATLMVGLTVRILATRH

COC(=O)N1CCN(Cc2cccc(NC(=O)Nc3ccc(C)nc3)c2F)CC1 [omecamtiv mecarbil]
Reduction in fatal stroke ([1]; all patients randomized): 42%
Reduction in the risk of first fatal or non-fatal stroke ([1]; all patients randomized): 35%
Adjudicated type of first stroke event: Hemorrhagic, % ([1]; in vivo): 0.1%
Adjudicated type of first stroke event: Ischemic (Non-hemorrhagic), % ([1]; in vivo): 1.6%
Adjudicated type of first stroke event: Undetermined, % ([1]; in vivo): 0.1%
Adjudicated type of first stroke event: Ischemic with hemorrhagic transformation, % ([1]; n = 4110): 0.1%
New onset atrial fibrillation/flutter, hazard ratio ([1]; no AF/F at screening): 0.70
New onset atrial fibrillation/flutter, hazard ratio ([1]; no history of AF/F): 0.60
Non-fatal and fatal stroke, hazard ratio ([1]; no history of atrial fibrillation): 0.81
Non-fatal and fatal stroke, hazard ratio ([1]; no history of stroke): 0.78
Primary endpoint, hazard ratio ([1]; patients with a history of stroke, vs placebo): 0.86
Primary endpoint, hazard ratio ([1]; patients with no stroke, vs placebo): 0.93
Time to first stroke event ([1]; result in words): significantly reduced
Fatal stroke, hazard ratio ([1]; vs placebo): 0.56
Non-fatal and fatal stroke, hazard ratio ([1]; with history of atrial fibrillation): 0.49
Non-fatal and fatal stroke, hazard ratio ([1]; with history of stroke): 0.23
Inhibition of MATE 2-K (MATE 2-K): inhibitor
Inhibition of MATE1 (MATE1): inhibitor
Parent compound recovered in urine [2]: 8%
Dose excreted in urine ([2]; primarily as metabolites): approximately 49%
Dose excreted in feces ([2]; primarily as unchanged drug): ~38%
Inhibition of P-gp (P-gp): inhibitor
Primary outcome, hazard ratio for the treatment effect ([3]; baseline SBP 101-110 mmHg (n=1734)): 0.88
Primary outcome, hazard ratio for the treatment effect ([3]; baseline SBP 111-120 mmHg (n=1824)): 1.03
Primary outcome, hazard ratio for the treatment effect ([3]; baseline SBP 121-130 mmHg (n=1627)): 0.87
Primary outcome, hazard ratio for the treatment effect ([3]; baseline SBP <100 mmHg (n=1473)): 0.81
Primary outcome, hazard ratio for the treatment effect ([3]; baseline SBP >130 mmHg (n=1574)): 1.07
Inhibition of BCRP (BCRP): weak inhibitor
Binding to plasma proteins (plasma proteins): 81.5%
Concentration dependence of protein binding (plasma proteins; result in words): independent of drug concentration up to 4000 ng/mL
